Source: publication PMC9329325, “Design, synthesis, in vitro biological assessment and molecular modeling insights for novel 3-(naphthalen-1-yl)-4,5-dihydropyrazoles as anticancer agents with potential EGFR inhibitory activity” (Scientific Reports, 2022)

Assays:
MDA-MB-231 = assay: MTT anti-proliferative assay, MDA-MB-231; type: cell-based, human; conditions: mean ± S.D. of 3 separate experiments
Experimental: (§1) The cytotoxic effects of herein prepared pyrazole- thiazol-4-one hybrids 9a-p against BC MDA-MB-231 and T-47D cell lines, obtained from American Type Culture Collection (ATCC), were determined using the MTT assay protocol. It is worth to mention that the selected cancer cell lines in this study are EGFR-expressing cell lines[25]–[28]. Doxorubicin and Erolitinib were utilized as positive control (Table 1).
(§2) All the biological assays conducted in this study were performed as reported earlier; MTT cytotoxicity[31],[32] cell cycle, Annexin V-FITC Apoptosis[34]–[36] and EGFR kinase[37] assays, (Supplementary Materials).
(§3) 1. Anti-proliferative activity
(§4) The two examined breast cancer cell lines (MDA-MB-231 and T-47D) as well as the normal breast MCF-10A cells have been obtained from American Type Culture Collection (ATCC). Cells lines were maintained as monolayers in Dulbecco’s Modified Eagle’s Medium (DMEM) supplemented with 10% FBS, 2 mM L-glutamine, 100 U/ml penicillin and 100µg/ml streptomycin sulfate. Cells were sub-cultured with trypsine /EDTA solution, counted with haemocytometer and plated onto 96-well plates (5000 cells/well) and left overnight to form a semi-confluent monolayer.
(§5) Cell monolayers were treated in quadrates with vehicle (DMSO, 0.1% v/v), test samples (thiazolyl-pyrazolines 9a-p) or Doxorubicin as positive control for an exposure time of 48 h. At the end of exposure, MTT solution in PBS (5 mg/ml) was then added to all well including no cell blank and left to incubate for 90 min. The formation of formazan crystals were visually confirmed using phase contract microscopy. DMSO (100 µl/well) was added to dissolve the formazan crystals with shaking for 10 min after which the absorbance was read at 590 nm against no cell blanks on a FLuo Star Optima microplate reader (BMG technologies, Germany). Cell proliferation was calculated comparing the OD values of the DMSO control wells and those of the samples represented as % proliferation to the control. Dose-response experiment was performed on samples producing > or =50% loss of cell proliferation using five serial 2-fold dilutions (50, 25, 12.5, 6.25 and 3.125 µM) of the sample. IC50 values (concentration of sample causing 50% loss of cell proliferation of the vehicle control) were calculated using non-linear regression curve fitting of the dose response plots on GraphPad Prism V.6.0 software. […]

T-47D = assay: MTT anti-proliferative assay, T-47D; type: cell-based, human; conditions: 48 h exposure, mean ± S.D. of 3 separate experiments
Experimental: as §1, §2, §3, §4, §5

MCF-10A = assay: MTT cytotoxicity toward normal breast MCF-10A cells; type: cell-based; conditions: Homo sapiens, 48 h exposure, mean ± S.D. of 3 separate experiments
Experimental: as §2, §3, §4, §5

EGFR = EGFR (Homo sapiens, UniProt P00533); assay: EGFR kinase inhibitory activity (ADP-Glo Kinase Assay)
Sequence of EGFR (P00533 25-1210): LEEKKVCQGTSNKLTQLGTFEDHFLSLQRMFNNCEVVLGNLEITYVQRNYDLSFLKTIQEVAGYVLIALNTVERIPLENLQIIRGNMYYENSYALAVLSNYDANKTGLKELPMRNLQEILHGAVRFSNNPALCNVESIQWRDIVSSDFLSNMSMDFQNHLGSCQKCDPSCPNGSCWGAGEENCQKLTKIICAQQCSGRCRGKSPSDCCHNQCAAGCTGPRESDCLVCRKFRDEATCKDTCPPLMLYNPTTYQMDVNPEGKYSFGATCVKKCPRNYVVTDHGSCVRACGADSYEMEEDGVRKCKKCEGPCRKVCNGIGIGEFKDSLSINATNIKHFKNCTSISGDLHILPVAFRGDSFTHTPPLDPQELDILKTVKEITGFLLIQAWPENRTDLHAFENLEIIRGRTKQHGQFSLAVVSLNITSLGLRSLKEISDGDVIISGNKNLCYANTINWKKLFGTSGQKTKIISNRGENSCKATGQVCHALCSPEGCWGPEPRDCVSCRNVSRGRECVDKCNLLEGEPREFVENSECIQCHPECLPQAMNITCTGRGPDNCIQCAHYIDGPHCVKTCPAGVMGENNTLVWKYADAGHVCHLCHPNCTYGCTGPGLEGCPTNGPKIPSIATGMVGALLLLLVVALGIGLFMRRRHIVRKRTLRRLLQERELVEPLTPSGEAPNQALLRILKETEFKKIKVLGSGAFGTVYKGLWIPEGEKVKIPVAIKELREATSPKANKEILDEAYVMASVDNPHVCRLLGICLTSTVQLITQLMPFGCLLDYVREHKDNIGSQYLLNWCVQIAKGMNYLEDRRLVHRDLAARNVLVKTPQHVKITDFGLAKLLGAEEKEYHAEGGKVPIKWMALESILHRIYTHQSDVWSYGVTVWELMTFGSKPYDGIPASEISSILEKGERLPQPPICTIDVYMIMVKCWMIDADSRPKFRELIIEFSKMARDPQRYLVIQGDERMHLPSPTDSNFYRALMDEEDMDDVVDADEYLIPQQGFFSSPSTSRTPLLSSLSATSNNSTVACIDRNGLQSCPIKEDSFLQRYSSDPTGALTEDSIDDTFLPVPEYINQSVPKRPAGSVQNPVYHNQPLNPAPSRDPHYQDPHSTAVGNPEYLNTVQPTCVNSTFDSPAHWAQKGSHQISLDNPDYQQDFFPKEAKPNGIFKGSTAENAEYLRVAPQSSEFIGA
Experimental: Cells were then analyzed using the flow cytometer BD FACS Canto II and the results were interpreted with FlowJo7.6.4 software (Tree Star, Ashland, OR, 4. EGFR Kinase Inhibitory Activity
ADP-Glo™ Kinase Assay (Promega, Catalogue No. V3831) which is a luminescent kinase assay that measures ADP formed from a kinase reaction. ADP is converted into ATP which is converted into light by Ultra‐Glo™ Luciferase. The luminescent signal positively correlates with ADP amount and kinase activity.
Protocol: first dilute enzyme, substrate, ATP and inhibitors in Tyrosine Kinase Buffer (40 mM Tris,7.5; 20 mM MgCl2; 0.1 mg/ml BSA (bovine serum albumin); 2 mM MnCl2; 50μM DTT),
and 2 μl of substrate/ATP mix. Incubate at room temperature for 60 minutes, add 5 μl of ADP‐ Glo™ Reagent, incubate at room temperature for 40 minutes, add 10 μl of Kinase Detection reagent, incubate at room temperature for 30 minutes and finally record luminescence (Integration time 0.5‐1second).

MDA-MB-231 cells [1] = assay: Annexin V-FITC/PI apoptosis assay; type: cell-based, human; conditions: at IC50 concentration (9g 0.62 µM, 9k 1.14 µM), 48 h; for Late apoptosis (upper right %): control 0.21%; for Early apoptosis (lower right %): control 0.73%; for Total apoptosis (L.R % + U.R %): control 0.94%
Experimental: as §2
3. Annexin V-FITC Apoptosis Assay
Phosphatidylserine externalization was assayed using Annexin V-FITC/PI apoptosis detection kit (BD Biosciences, USA) according to the manufacturer’s instructions. Breast cancer MDA-MB-231 cells were cultured to a monolayer then treated with compounds 9g and 9k at their IC50 concentration. Briefly, cells were then harvested via trypsinization, and rinsed twice in PBS followed by binding buffer. Moreover, cells were re-suspended in 100 μL of binding buffer with the addition of 1 μL of FITC-Annexin V followed by an incubation period of 30 min at 4 °C. Cells were then rinsed in binding buffer and resuspended in 150 μL of binding buffer with the addition

MDA-MB-231 cells [2] = assay: Cell cycle analysis by PI flow cytometry; type: cell-based, human; conditions: at IC50 concentration (9g 0.62 µM, 9k 1.14 µM), 24 h; for %Sub-G1: control 2.13%; for %S: control 32.11%
Experimental: All the biological assays conducted in this study were performed as reported earlier; MTT cytotoxicity[31],[32] cell cycle, Annexin V-FITC Apoptosis[34]–[36] and EGFR kinase[37] assays, (Supplementary Materials). […]
The two examined breast cancer cell lines (MDA-MB-231 and T-47D) as well as the normal breast MCF-10A cells have been obtained from American Type Culture Collection (ATCC). Cells lines were maintained as monolayers in Dulbecco’s Modified Eagle’s Medium (DMEM) supplemented with 10% FBS, 2 mM L-glutamine, 100 U/ml penicillin and 100µg/ml streptomycin […]
sulfate. […]
Breast cancer MDA-MB-231 cells were treated with compounds 9g and 9k for 24 h (at their IC50 concentration), and then cells were washed twice with ice-cold phosphate buffered saline (PBS). Subsequently, the treated cells were collected by centrifugation, fixed in ice-cold 70% (v/v) ethanol, washed with PBS, re-suspended with 100 μg/mL RNase, stained with 40 μg/mL PI, and analyzed by flow cytometry using FACS Calibur (Becton Dickinson, BD, Franklin Lakes, NJ, USA). The cell cycle distributions were calculated using CellQuest software 5.1 (Becton

[3] = Homo sapiens, MDA-MB-231, 48 h, 48 h exposure

SMILES	IC50 (MDA-MB-231; [3]) [µM]	IC50 (T-47D; Homo sapiens, T47D, 48 h) [µM]	IC50 (MCF-10A) [µM]	further results
COc1cccc(/C=C2/SC(N3N=C(c4cccc5ccccc45)CC3c3ccc(Cl)cc3)=NC2=O)c1O (stereo not shown) [Compound 9n]	35.1 ± 1.92	67.3 ± 2.51		
COc1ccccc1/C=C1/SC(N2N=C(c3cccc4ccccc34)CC2c2ccc(Cl)cc2)=NC1=O (stereo not shown) [Compound 9l]	58 ± 3.16	> 100		IC50 (T-47D): > 100 µM; IC50 T-47D (T-47D): inactive
COc1ccc(/C=C2/SC(N3N=C(c4cccc5ccccc45)CC3c3ccc(Cl)cc3)=NC2=O)cc1 (stereo not shown) [Compound 9m]	18.9 ± 1.03	27.6 ± 1.24		
O=C1N=C(N2N=C(c3cccc4ccccc34)CC2c2ccc(F)cc2)S/C1=C/c1ccccc1 (stereo not shown) [Compound 9a]	19.8 ± 1.08	> 100		IC50 (T-47D): > 100 µM; IC50 T-47D (T-47D): inactive
C#Cc1cccc(Nc2ncnc3cc(OCCOC)c(OCCOC)cc23)c1 [Erlotinib, reference compound]				IC50 (MDA-MB-231; Homo sapiens, MDA-MB-231, 48 h exposure): 2.88 ± 0.17 µM; IC50 (T-47D; Homo sapiens, T47D): 3.61 ± 0.24 µM
O=C1N=C(N2N=C(c3cccc4ccccc34)CC2c2ccc(Cl)cc2)S/C1=C/c1ccc(O)cc1 (stereo not shown) [Compound 9j]	< 10	35.1 ± 2.04	65.4 ± 5.04	IC50 (MDA-MB-231; 48 h exposure): 6.24 ± 0.34 µM
O=C1N=C(N2N=C(c3cccc4ccccc34)CC2c2ccc(Cl)cc2)S/C1=C/c1ccccc1 (stereo not shown) [Compound 9i]	24.7 ± 1.35	> 100		IC50 (T-47D): > 100 µM; IC50 T-47D (T-47D): inactive
COc1ccccc1/C=C1/SC(N2N=C(c3cccc4ccccc34)CC2c2ccc(F)cc2)=NC1=O (stereo not shown) [Compound 9d]	45 ± 2.45	> 100		IC50 (T-47D): > 100 µM; IC50 T-47D (T-47D): inactive

Further compounds by falling IC50 (T-47D; Homo sapiens, T47D, 48 h), results first:

IC50 (MDA-MB-231; [3]) [µM]	IC50 (T-47D; Homo sapiens, T47D, 48 h) [µM]	SMILES	IC50 (MCF-10A) [µM]	further results
	27.1 ± 1.08	COc1cccc(/C=C2/SC(N3N=C(c4cccc5ccccc45)CC3c3ccc(F)cc3)=NC2=O)c1O (stereo not shown) [Compound 9f]	42.6 ± 2.81	
10.8 ± 0.59	19.5 ± 0.92	COc1cc(/C=C2/SC(N3N=C(c4cccc5ccccc45)CC3c3ccc(Cl)cc3)=NC2=O)ccc1O (stereo not shown) [Compound 9p]	83.6 ± 6.74	IC50 (MDA-MB-231; 48 h exposure): 6.55 ± 0.357 µM
12.2 ± 0.67	18.6 ± 0.87	O=C1N=C(N2N=C(c3cccc4ccccc34)CC2c2ccc(F)cc2)S/C1=C/c1ccc(O)cc1 (stereo not shown) [Compound 9b]		
14.1 ± 0.77	12.4 ± 0.33	COc1ccc(/C=C2/SC(N3N=C(c4cccc5ccccc45)CC3c3ccc(F)cc3)=NC2=O)cc1 (stereo not shown) [Compound 9e]		
< 10	11.4 ± 0.67	COc1cc(/C=C2/SC(N3N=C(c4cccc5ccccc45)CC3c3ccc(F)cc3)=NC2=O)ccc1O (stereo not shown) [Compound 9h]	79.5 ± 5.27	IC50 (MDA-MB-231; 48 h exposure): 5.82 ± 0.317 µM
	8.45 ± 0.27	CN(C)c1ccc(/C=C2/SC(N3N=C(c4cccc5ccccc45)CC3c3ccc(F)cc3)=NC2=O)cc1 (stereo not shown) [Compound 9c]	47 ± 3.52	
10.8 ± 0.59	7.36 ± 0.3	COc1ccc(/C=C2/SC(N3N=C(c4cccc5ccccc45)CC3c3ccc(Cl)cc3)=NC2=O)cc1O (stereo not shown) [Compound 9o]		
	4.92 ± 0.28	CN(C)c1ccc(C=C2SC(N3N=C(c4cccc5ccccc45)CC3c3ccc(Cl)cc3)=NC2=O)cc1 (stereo not shown) [Compound 9k]	58.5 ± 4.36	IC50 (EGFR): 0.395 ± 0.017 µM; Late apoptosis (upper right %) (MDA-MB-231 cells [1]): 20%; Early apoptosis (lower right %) (MDA-MB-231 cells [1]): 14.22%; Total apoptosis (L.R % + U.R %) (MDA-MB-231 cells [1]): 34.22%; %Sub-G1 (MDA-MB-231 cells [2]): 27.86%; %S (MDA-MB-231 cells [2]): 28.45%; %G0-G1 (MDA-MB-231 cells [2]; control 53.45%): 40.61%
	3.14 ± 0.11	COc1ccc(C=C2SC(N3N=C(c4cccc5ccccc45)CC3c3ccc(F)cc3)=NC2=O)cc1O (stereo not shown) [Compound 9g]	31.7 ± 3.1	IC50 (EGFR): 0.267 ± 0.012 µM; Late apoptosis (upper right %) (MDA-MB-231 cells [1]): 23.93%; Early apoptosis (lower right %) (MDA-MB-231 cells [1]): 8.39%; Total apoptosis (L.R % + U.R %) (MDA-MB-231 cells [1]): 32.32%; %Sub-G1 (MDA-MB-231 cells [2]): 31.05%; %G2/M (MDA-MB-231 cells [2]; control 12.31%): 2%; %S (MDA-MB-231 cells [2]): 35.43%
3.67 ± 0.2	2.73 ± 0.09	COc1cccc2c1C(=O)c1c(O)c3c(c(O)c1C2=O)C[C@@](O)(C(=O)CO)C[C@@H]3O[C@H]1C[C@H](N)[C@H](O)[C@H](C)O1 [Doxorubicin, reference compound]		
